Experimental data taken from ChEMBL document CHEMBL1201862, “PubChem BioAssay data set” (2004).
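Dose response: 5 concentrations. Exposure: 48 h. Format: 96-well plates. Endpoint: linear interpolation; highest concentration if not reached. GI50 is the concentration that inhibits growth by half.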 Activity calls are given as the source filed them. No stated cut-off is given here; in the data, active = GI50 up to about 1.1 µM and inactive = higher.

Legend:
Assay in all cases: DTP human tumour cell line panel, 48 h
EKVX = tested on: EKVX
NCI-H226 = tested on: NCI-H226
U-251 = tested on: U-251
SW-620 = tested on: SW-620
LOX IMVI = tested on: LOX IMVI
SNB-19 = tested on: SNB-19
DMS-114 = tested on: DMS-114
OVCAR-3 = tested on: OVCAR-3
ACHN = tested on: ACHN
M19-MEL = tested on: M19-MEL
CCRF-CEM = tested on: CCRF-CEM
SNB-75 = tested on: SNB-75
HOP-92 = tested on: HOP-92
SNB-78 = tested on: SNB-78
NCI-H460 = tested on: NCI-H460
HOP-18 = tested on: HOP-18
SR = tested on: SR
SK-MEL-5 = tested on: SK-MEL-5
M14 = tested on: M14
KM12 = tested on: KM12
HT-29 = tested on: HT-29
LXFL 529 = tested on: LXFL 529
DLD-1 = tested on: DLD-1
SF-295 = tested on: SF-295
HOP-62 = tested on: HOP-62
A498 = tested on: A498
K562 = tested on: K562
CAKI-1 = tested on: CAKI-1
TK-10 = tested on: TK-10
HCT-15 = tested on: HCT-15
SK-OV-3 = tested on: SK-OV-3
Malme-3M = tested on: Malme-3M
RPMI-8226 = tested on: RPMI-8226
HL-60 = tested on: HL-60
SF-268 = tested on: SF-268
NCI-H522 = tested on: NCI-H522
UO-31 = tested on: UO-31
SN12C = tested on: SN12C
SF-539 = tested on: SF-539
SK-MEL-2 = tested on: SK-MEL-2
DMS-273 = tested on: DMS-273
MOLT-4 = tested on: MOLT-4
KM-20L2 = tested on: KM-20L2
A549 = tested on: A549
OVCAR-8 = tested on: OVCAR-8
786-0 = tested on: 786-0
HCT-116 = tested on: HCT-116
OVCAR-4 = tested on: OVCAR-4
RXF 393 = tested on: RXF 393
COLO 205 = tested on: COLO 205
OVCAR-5 = tested on: OVCAR-5
UACC-257 = tested on: UACC-257
NCI-H23 = tested on: NCI-H23
SK-MEL-28 = tested on: SK-MEL-28
HCC 2998 = tested on: HCC 2998
IGROV-1 = tested on: IGROV-1
UACC-62 = tested on: UACC-62

Measured: GI50

C[C@@H](O)CCC(=O)c1ccoc1
> 100 µM: HCT-15
inactive: EKVX > 100 µM | NCI-H226 > 100 µM | U-251 > 100 µM | SW-620 > 100 µM | LOX IMVI > 100 µM | SNB-19 > 100 µM | DMS-114 > 100 µM | OVCAR-3 > 100 µM | ACHN > 100 µM | M19-MEL > 100 µM | CCRF-CEM > 100 µM | SNB-75 > 49.2 µM | HOP-92 > 100 µM | SNB-78 > 100 µM | NCI-H460 > 100 µM | HOP-18 > 100 µM | SR > 84.3 µM | SK-MEL-5 > 100 µM | M14 > 100 µM | KM12 > 100 µM | HT-29 > 100 µM | LXFL 529 > 100 µM | DLD-1 > 100 µM | SF-295 > 100 µM | HOP-62 > 100 µM | A498 > 100 µM | K562 > 100 µM | CAKI-1 > 100 µM | TK-10 > 100 µM | SK-OV-3 > 100 µM | Malme-3M > 100 µM | RPMI-8226 > 100 µM | HL-60 > 100 µM | SF-268 > 100 µM | NCI-H522 > 100 µM | UO-31 > 100 µM | SN12C > 100 µM | SF-539 > 100 µM | SK-MEL-2 > 100 µM | DMS-273 > 100 µM | MOLT-4 > 100 µM | KM-20L2 > 100 µM | A549 > 100 µM | OVCAR-8 > 100 µM | 786-0 > 100 µM | HCT-116 > 100 µM | OVCAR-4 > 100 µM | RXF 393 > 100 µM | COLO 205 > 100 µM | OVCAR-5 > 100 µM | UACC-257 > 100 µM | NCI-H23 > 100 µM | SK-MEL-28 > 100 µM | HCC 2998 > 100 µM | IGROV-1 > 100 µM | UACC-62 > 100 µM

Cc1ccc(S(=O)(=O)N/N=C(/CC(=O)c2c(C)[n+]([O-])c3ccccc3[n+]2[O-])C(=O)Nc2ccccc2C)cc1
inactive: EKVX > 100 µM | NCI-H226 > 100 µM | U-251 > 100 µM | SW-620 > 100 µM | SNB-19 > 100 µM | DMS-114 > 100 µM | OVCAR-3 > 100 µM | ACHN > 100 µM | M19-MEL > 100 µM | SNB-75 31.2 µM | HOP-92 30.8 µM | SNB-78 > 100 µM | NCI-H460 > 100 µM | HOP-18 > 100 µM | SR 35.5 µM | M14 > 100 µM | KM12 > 100 µM | HT-29 > 100 µM | LXFL 529 > 100 µM | DLD-1 > 100 µM | SF-295 > 100 µM | HOP-62 > 100 µM | A498 > 100 µM | CAKI-1 > 100 µM | SK-OV-3 > 100 µM | Malme-3M > 100 µM | RPMI-8226 > 100 µM | SF-268 > 100 µM | NCI-H522 > 100 µM | UO-31 > 100 µM | SN12C > 100 µM | SF-539 > 100 µM | SK-MEL-2 > 100 µM | DMS-273 > 100 µM | KM-20L2 > 100 µM | A549 > 100 µM | 786-0 > 100 µM | HCT-116 > 100 µM | OVCAR-4 > 100 µM | RXF 393 > 100 µM | COLO 205 > 100 µM | OVCAR-5 > 100 µM | UACC-257 > 100 µM | NCI-H23 > 100 µM | SK-MEL-28 > 100 µM | HCC 2998 > 100 µM | IGROV-1 > 100 µM | UACC-62 > 100 µM
> 100 µM: HCT-15
